{"source": "patent US6593374B2", "about": "“Tubulin binding ligands and corresponding prodrug constructs” (Baylor University, priority 2000, dated 2003)", "key": {"[1]": {"tested_on": "tumor vasculature", "conditions": "cited from earlier work"}, "[2]": {"tested_on": "purified tubulin", "conditions": "previously described compounds; cited from earlier work"}, "[3]": {"conditions": "cited from earlier work"}, "[4]": {"tested_on": "NCI 60 cell line panel", "test": "NCI 60 cell line panel", "format": "cell-based", "conditions": "Homo sapiens"}, "[5]": {"tested_on": "T1, purified tubulin", "T1 construct": "other: purified bovine brain tubulin 1.5 mg/ml, 15 min preincubati", "test": "Inhibition of tubulin polymerization assay", "format": "biochemical, bovine", "conditions": "for IC50: read-out: IC50, in vitro inhibition of tubulin polymerization, purified bovine brain tubulin 1.5 mg/ml, 15 min preincubation at 37° C., GTP-induced, 350 nm", "protocol": "After the incubation period, the reaction was cooled and GTP was added to induce tubulin polymerization. Polymerization was then monitored in a Gilford spectrophotometer at 350 nm. The final reaction mixtures (0.25 ml) contained 1.5 mg/ml tubulin, 0.6 mg/ml microtubule-associated proteins (MAPs), 0.5 mM GTP, 0.5 mM MgCl2, 4% DMSO and 0.1M 4-morpholineethanesulfonate buffer (MES, pH 6.4)."}, "[6]": {"tested_on": "human cancer cells", "test": "Cytotoxicity against human cancer cells", "format": "cell-based"}, "[7]": {"tested_on": "MHEC", "test": "In vivo tumor growth control in scid mice after MHEC inoculation", "conditions": "female scid mice, single dose ip 400 mg/kg, one week after MHEC inoculation (1×10^6/mouse)", "protocol": "Female scid mice were single dose ip administered with CA-4P, and benzo[b]thiophene phosphate prodrug at 400 mg/kg (i.e., MDT of CA-4P) after one week of MHEC inoculation (1×10^6/mouse) (FIG. 20). Studies were carried out through a collaboration with professors Ronald W. Pero and Klaus Edvardsen, University of Lund, Sweden"}, "[8]": {"tested_on": "NCI-H460", "test": "Growth inhibition, human cancer cell line NCI-H460 (SRB)", "format": "cell-based", "conditions": "Lung-NSC, 48 hours", "protocol": "(§1) Several of the compounds described in this application were evaluated in terms of growth inhibitory activity against several human cancer cell lines, including pancreas, breast, CNS, lung-NSC, colon, and prostate lines. The assay used is described in Monks et al.^32 Briefly, the cell suspensions, diluted according to the particular cell type and the expected target cell density (5,000-40,000 cells per well based on cell growth characteristics), were added by pipet (100 μl) to 96-well microtiter plates. Inoculates were allowed a preincubation time of 24-28 hours at 37° C. for stabilization. Incubation with the inhibitor compounds lasted for 48 hours in 5% CO2 atmosphere and 100% humidity. Determination of cell growth was done by in situ fixation of cells, followed by staining with a protein-binding dye, sulforhodamine B (SRB), which binds to the basic amino acids of cellular macromolecules. The solubilized stain was measured spectrophotometrically."}, "[9]": {"tested_on": "SF-295", "test": "Growth inhibition, human cancer cell line SF-295 (SRB)", "format": "cell-based", "conditions": "CNS, 48 hours", "protocol": "as §1"}, "[10]": {"tested_on": "KM20L2", "test": "Growth inhibition, human cancer cell line KM20L2 (SRB)", "format": "cell-based", "conditions": "48 hours", "protocol": "as §1"}, "[11]": {"tested_on": "DU-145", "test": "Growth inhibition, human cancer cell line DU-145 (SRB)", "format": "cell-based", "conditions": "Prostate, 48 hours", "protocol": "as §1"}, "[12]": {"tested_on": "MCF-7", "test": "Growth inhibition, human cancer cell line MCF-7 (SRB)", "format": "cell-based", "conditions": "48 hours", "protocol": "as §1"}, "[13]": {"tested_on": "BXPC-3", "test": "Growth inhibition, human cancer cell line BXPC-3 (SRB)", "format": "cell-based", "conditions": "Pancreas-a, 48 hours", "protocol": "as §1"}, "[14]": {"tested_on": "SF-268", "test": "Growth inhibition, human cancer cell line SF-268 (SRB)", "format": "cell-based", "conditions": "CNS Gliobl, 48 hours", "protocol": "as §1"}, "[15]": {"tested_on": "P388 leukemia cells", "test": "Cytotoxicity assay with P388 leukemia cells", "format": "cell-based"}, "[16]": {"tested_on": "OVCAR-3", "test": "Growth inhibition, human cancer cell line OVCAR-3 (SRB)", "format": "cell-based", "conditions": "Ovarian, 48 hours", "protocol": "as §1"}, "[17]": {"tested_on": "FADU", "test": "Growth inhibition, human cancer cell line FADU (SRB)", "format": "cell-based", "conditions": "Pharynx-sqam, 48 hours", "protocol": "as §1"}, "[18]": {"conditions": "Homo sapiens, KM-20L2, Colon, read-out: GI50"}, "[19]": {"conditions": "Homo sapiens, MCF7, Breast adn, read-out: GI50"}}, "note": "Read-outs that look alike come from different tables or passages of the source.", "data": [{"compound": "COc1ccc(/C=C\\c2cc(OC)c(OC)c(OC)c2)cc1OP(=O)([O-])[O-].[Na+].[Na+]", "note": "[CSA-4 prodrug]", "values": [{"measurement": "destruction of tumor vasculature (in words)", "setting": "[1]", "value": "very active in terms of tumor vasculature destruction"}]}, {"compound": "COc1ccc(/C=C\\c2cc(OC)c(OC)c(OC)c2)cc1O", "note": "[Combretastatin A-4]", "values": [{"measurement": "inhibition of tubulin polymerization (in words)", "setting": "[2]", "value": "potent inhibitor of tubulin polymerization"}, {"measurement": "water solubility (in words)", "setting": "[3]", "value": "poor water solubility"}, {"measurement": "destruction of tumor vasculature (in words)", "setting": "[1]", "value": "does not demonstrate destruction of tumor vasculature"}]}, {"compound": "COc1ccc2scc(OC)c2c1OC", "note": "[Compound 1, 3,4,5-trimethoxybenzo[b]thiophene]", "values": [{"measurement": "GI50", "setting": "[4]", "value": 263, "unit": "nM"}, {"measurement": "inhibition of tubulin polymerization (in words)", "setting": "[5]", "value": "inhibition of tubulin polymerization"}, {"measurement": "cytotoxicity (in words)", "setting": "[6]", "value": "potent cytotoxicity"}]}, {"compound": "COc1ccc2c(C(=O)c3cc(OC)c(OC)c(OC)c3)c(-c3ccc(OC)c(OP(=O)([O-])[O-])c3)sc2c1.[Na+].[Na+]", "note": "[Compound 3, 3-(3′,4′,5′-trimethoxybenzoyl)-2-(3′-sodiumphosphate-4′-methoxyphenyl)-6-methoxybenzo[b]thiophene]", "values": [{"measurement": "tumor growth control (FIG. 20)", "setting": "[7]", "value": "remarkable activity in terms of tumor growth control"}, {"measurement": "GI50", "setting": "[8]", "value": 0.035, "unit": "µg/mL"}, {"measurement": "IC50", "setting": "[5]", "value": "1000 to 4000", "unit": "nM"}, {"measurement": "GI50", "setting": "[9]", "value": 0.11, "unit": "µg/mL"}, {"measurement": "GI50", "setting": "[10]; Colon", "value": 0.22, "unit": "µg/mL"}, {"measurement": "GI50", "setting": "[11]", "value": 0.045, "unit": "µg/mL"}, {"measurement": "GI50", "setting": "[12]; Breast adn", "value": 0.028, "unit": "µg/mL"}, {"measurement": "GI50", "setting": "[13]", "value": 0.35, "unit": "µg/mL"}]}, {"compound": "COc1ccc2c(c1)CCCC2(O)c1cc(OC)c(OC)c(OC)c1", "note": "(stereo not drawn) [Compound 14A]", "values": [{"measurement": "GI50", "setting": "[8]; Homo sapiens, read-out: GI50", "value": 0.16, "unit": "µg/mL"}, {"measurement": "IC50", "setting": "[5]", "value": "1000 to 4000", "unit": "nM"}, {"measurement": "GI50", "setting": "[10]; [18]", "value": 0.11, "unit": "µg/mL"}, {"measurement": "GI50", "setting": "[14]", "value": 0.67, "unit": "µg/mL"}, {"measurement": "GI50", "setting": "[11]; Homo sapiens, read-out: GI50", "value": 0.38, "unit": "µg/mL"}, {"measurement": "GI50", "setting": "[12]; [19]", "value": 0.043, "unit": "µg/mL"}, {"measurement": "GI50", "setting": "[13]; Homo sapiens, read-out: GI50", "value": 0.13, "unit": "µg/mL"}]}, {"compound": "CCOP(=O)(Nc1c(OC)ccc2c1CCC=C2c1cc(OC)c(OC)c(OC)c1)OCC", "note": "[Compound 16, 6-methoxy-1-(3′,4′,5′-trimethoxyphenyl)-5-diethylphosphoramidate-3,4-dihydronaphthalene]", "values": [{"measurement": "GI50", "setting": "[8]; Homo sapiens, read-out: GI50", "value": 3.4, "unit": "µg/mL"}, {"measurement": "IC50", "setting": "[5]", "value": "> 40000", "unit": "nM"}, {"measurement": "ED50 (effective dosage required to inhibit 50% of cell growth)", "setting": "[15]", "value": 20.4, "unit": "µg/mL"}, {"measurement": "GI50", "setting": "[9]; Homo sapiens, read-out: GI50", "value": 2.2, "unit": "µg/mL"}, {"measurement": "GI50", "setting": "[10]; [18]", "value": 2.5, "unit": "µg/mL"}, {"measurement": "GI50", "setting": "[11]; Homo sapiens, read-out: GI50", "value": 2.8, "unit": "µg/mL"}, {"measurement": "GI50", "setting": "[12]; [19]", "value": 3, "unit": "µg/mL"}, {"measurement": "GI50", "setting": "[13]; Homo sapiens, read-out: GI50", "value": 2, "unit": "µg/mL"}]}, {"compound": "C#CC=CC#CC(=O)c1cc(OC)c(OC)c(OC)c1", "note": "[Compound 30, 1-(3,4,5-trimethoxybenzoyl)-(Z)-3-ene-1,5-hexadiyne]", "values": [{"measurement": "GI50", "setting": "[8]; Homo sapiens, read-out: GI50", "value": 1.7, "unit": "µg/mL"}, {"measurement": "inhibition of tubulin polymerization (in words)", "setting": "[5]", "value": "excellent inhibition of tubulin polymerization"}, {"measurement": "IC50", "setting": "[5]", "value": "2000 to 4000", "unit": "nM"}, {"measurement": "GI50", "setting": "[9]; Homo sapiens, read-out: GI50", "value": 1.7, "unit": "µg/mL"}, {"measurement": "cytotoxicity (in words)", "setting": "[6]", "value": "strong cytotoxicity"}, {"measurement": "GI50", "setting": "[11]; Homo sapiens, read-out: GI50", "value": 0.54, "unit": "µg/mL"}, {"measurement": "GI50", "setting": "[16]", "value": 0.53, "unit": "µg/mL"}, {"measurement": "GI50", "setting": "[17]", "value": 0.95, "unit": "µg/mL"}, {"measurement": "GI50", "setting": "[13]; Homo sapiens, read-out: GI50", "value": 1.4, "unit": "µg/mL"}]}]}
